In PMC12508156, “Non-canonical dihydrolipoyl transacetylase promotes chemotherapy resistance via mitochondrial tetrahydrofolate signaling” (Nature Communications, 2025) one finds time-dependent serum stability, toxicity markers and acute toxicity data, which are given here for one compound.

Series [1] can be described thus: HPLC-based in vitro serum stability assay. It counts as in vitro ADME. As to conditions: 0.2 mg DMp39 incubated for indicated times with pre-warmed 50% serum, remaining peptide by heights of elution peaks, optimal dose of 20 μM. As to the method:
Fig. 8 Decoy peptide DMp39 targets DLAT-mediated MTHFD2 acetylation and increases tumor chemosensitivity in vitro and in vivo. a The structure of MTHFD2. K44 containing α-helix in MTHFD2, is marked in purple. The amino acid sequence of DMp39 is shown at the top. b HPLC-based in vitro serum stability assay of DMp39. DMp39 (0.2 mg) was incubated for indicated times with pre-warmed 50% serum and applied to HPLC. […] Liver, kidney, and spleen toxicity were assessed by serum alanine aminotransferase, cystatin C, and spleen index (spleen weight (mg)/body weight (g) x 10), respectively. g Efficacy test of Cy7-DMp39 in vivo. […] MTHFD2 and Ac-K44 MTHFD2 levels in tumors were assessed by co-immunoprecipitation of MTHFD2. […] Representative images of the tumors at the endpoint are presented in (h) and (k). Ac-K44 MTHFD2, MT-CO2, and DLAT levels in both xenograft mouse tumors were assessed by IHC staining (j, m). Scale bars in (h) and (k) represent 10 mm and 25 μm in (j) and (m). Results are presented as mean ± SEM for (h, k) and mean ± SD for the rest. n = 3 per group for (e, f), n = 6 for (g) left, n = 5 for (g) right, n = 6 for (h–j), and n = 5 for (k–m). P values were obtained by one-way ANOVA. Source data are provided as a Source Data file.

Series [2] is described as follows: Organ toxicity in mice (serum ALT, cystatin C, spleen index). The class given is in vivo. As to the method: K44 containing α-helix in MTHFD2, is marked in purple. The amino acid sequence of DMp39 is shown at the top. b HPLC-based in vitro serum stability assay of DMp39. DMp39 (0.2 mg) was incubated for indicated times with pre-warmed 50% serum and applied to HPLC. […] Liver, kidney, and spleen toxicity were assessed by serum alanine aminotransferase, cystatin C, and spleen index (spleen weight (mg)/body weight (g) x 10), respectively. g Efficacy test of Cy7-DMp39 in vivo. […] MTHFD2 and Ac-K44 MTHFD2 levels in tumors were assessed by co-immunoprecipitation of MTHFD2. […] Representative images of the tumors at the endpoint are presented in (h) and (k). Ac-K44 MTHFD2, MT-CO2, and DLAT levels in both xenograft mouse tumors were assessed by IHC staining (j, m). […]
Mice were subcutaneously injected into the flank with 1 × 10^6 KB-3-1^cisR cells with or without DLAT knockdown. […] The tumor volume of KB-3-1^cisR or PDX tumors was monitored by blinded measurements of two perpendicular diameters and calculated using the formula 4π/3 x (width/2)^2 x (length/2). […] Tumors were collected at the experimental endpoint, and tumor proliferation was assessed using Ki-67 IHC staining. The localization, penetration, and efficacy of DMp39 were monitored by assessing the acetyl-K44 levels in tumors and fluorescence imaging analysis using an IVIS imaging system. […]

Residues, ends and D or L forms follow the SMILES beside them.

With `CC[C@H](C)[C@H](NC(=O)[C@H](CCC(N)=O)NC(=O)[C@H](CCC(N)=O)NC(=O)[C@H](C)NC(=O)[C@H](CC(C)C)NC(=O)[C@H](CCCCN)NC(=O)[C@H](CCCNC(=N)N)NC(=O)CNC(=O)[C@H](CO)NC(=O)[C@@H](NC(=O)[C@@H](N)C(C)C)[C@@H](C)CC)C(=O)N[C@@H](CCCCN)C(=O)N[C@@H](CCC(N)=O)C(=O)N[C@@H](CCC(=O)O)C(=O)N[C@H](C(=O)N[C@@H](CCCNC(=N)N)C(=O)N[C@@H](CCC(N)=O)C(=O)N[C@@H](CCC(=O)O)C(=O)N[C@H](C(=O)N[C@@H](CCC(=O)O)C(=O)N[C@@H](CCC(=O)O)C(=O)N[C@@H](Cc1c[nH]c2ccccc12)C(=O)N[C@H](C(=O)N[C@@H](C)C(=O)N[C@@H](CO)C(=O)NCC(=O)N[C@@H](CC(N)=O)C(=O)N[C@@H](CCCCN)C(=O)N[C@@H](Cc1ccc(O)cc1)C(=O)NCC(=O)N[C@@H](CCCNC(=N)N)C(=O)N[C@@H](CCCCN)C(=O)N[C@@H](CCCCN)C(=O)N[C@@H](CCCNC(=N)N)C(=O)N[C@@H](CCCNC(=N)N)C(=O)N[C@@H](CCC(N)=O)C(=O)N[C@@H](CCCNC(=N)N)C(=O)N[C@@H](CCCNC(=N)N)C(=O)N[C@@H](CCCNC(=N)N)C(=O)O)C(C)C)C(C)C)C(C)C` [DMp39] (H-VISGRKLAQQIKQEVRQEVEEWVASGNKYGRKKRRQRRR-OH), the time-dependent serum stability entry in series [1] is given as “stable”. For the same compound, the toxicity markers entry in series [2] (mice, sublethal cisplatin (5 mg/kg, twice/week for 22 days) and/or DMp39) is reported as “remained at baseline levels”. For the same compound, the acute toxicity result in series [2] (short-term dosing in mice) is on record as “no acute toxicity”.
